The values below come from PMC4460250, “Systems Pharmacology Dissecting Holistic Medicine for Treatment of Complex Diseases: An Example Using Cardiocerebrovascular Diseases Treated by TCM” (Evidence-based Complementary and Alternative Medicine : eCAM, 2015).

The structures appear in SMILES notation.

For one series the following is noted: in vivo; cited from earlier work.
Take `CC[C@H](C)C(=O)O[C@H]1C[C@H](O)C=C2C=C[C@H](C)[C@H](CC[C@@H](O)C[C@@H](O)CC(=O)O)[C@H]21` [Pravastatin]: the “HIA(Human Intestinal Absorption)” value was 0.34. With `O=C(C1CCCCC1)N1CC(=O)N2CCc3ccccc3C2C1` (stereo not shown) [Praziquantel], the “HIA(Human Intestinal Absorption)” value was 1. For the compound `COc1cc2nc(N3CCN(C(=O)c4ccco4)CC3)nc(N)c2cc1OC` [Prazosin], the “HIA(Human Intestinal Absorption)” value is reported as 0.86. On to `CCC1(c2ccccc2)C(=O)NCNC1=O` [Primidone], for which the “HIA(Human Intestinal Absorption)” value is given as 0.75.

As for `CCCN(CCC)S(=O)(=O)c1ccc(C(=O)O)cc1` [Probenecid], the “HIA(Human Intestinal Absorption)” value is given as 1. On to `[H]/N=C(\N/C(=N/[H])Nc1ccc(Cl)cc1)NC(C)C` [Proguanil], for which the “HIA(Human Intestinal Absorption)” value is given as 0.8. As for `CNCCCC1c2ccccc2C=Cc2ccccc21` [Protriptyline], the “HIA(Human Intestinal Absorption)” value is 0.95. For the compound `NC(=O)c1cnccn1` [Pyrazinamide], the “HIA(Human Intestinal Absorption)” value is given as 1. On to `OCCOCCN1CCN(C2=Nc3ccccc3Sc3ccccc32)CC1` [Quetiapine], for which the “HIA(Human Intestinal Absorption)” value was 0.73.

On to `CCCN1CC(NS(=O)(=O)N(CC)CC)CC2Cc3c(O)cccc3CC21` (stereo not shown) [Quinagolide], for which the “HIA(Human Intestinal Absorption)” value is listed as 1.

Turning to `COCCCOc1ccnc(C[S+]([O-])c2nc3ccccc3[nH]2)c1C` (stereo not shown) [Rabeprazole], the “HIA(Human Intestinal Absorption)” value is given as 0.9.

On to `CNC(=C[N+](=O)[O-])NCCSCc1ccc(CN(C)C)o1` [Ranitidine], for which the “HIA(Human Intestinal Absorption)” value is listed as 0.5. As for `Cc1cccc(C)c1NC(=O)NCCCNC(C)C` [Recainam], the “HIA(Human Intestinal Absorption)” value is on record as 0.71. As for `NC(=O)c1ncn([C@@H]2O[C@H](CO)[C@@H](O)[C@H]2O)n1` [Ribavirin], the “HIA(Human Intestinal Absorption)” value is reported as 0.33. With `CC(NCCc1ccc(O)cc1)C(O)c1ccc(O)cc1` (stereo not shown) [Ritodrine], the “HIA(Human Intestinal Absorption)” value is 0.95. For the compound `CN(C)CCc1c[nH]c2ccc(Cn3cncn3)cc12` [Rizatriptan], the “HIA(Human Intestinal Absorption)” value is on record as 0.9. Consider `O=C1NS(=O)(=O)c2ccccc21` [Saccharin], for which the “HIA(Human Intestinal Absorption)” value is recorded as 0.88.

For `O=C(Oc1ccccc1C(=O)O)c1ccccc1O` [Salsalate], the “HIA(Human Intestinal Absorption)” value was 1.

Take `O=c1[nH]c(=O)n([C@@H]2O[C@H](CO)[C@@H](O)[C@@H]2O)cc1/C=C/Br` [Sorivudine]: the “HIA(Human Intestinal Absorption)” value is reported as 0.82. As to `C[C@@H]1CN(c2c(F)c(N)c3c(=O)c(C(=O)O)cn(C4CC4)c3c2F)C[C@H](C)N1` [Sparfloxacin], the “HIA(Human Intestinal Absorption)” value is 0.9. As to `CC(=O)S[C@@H]1CC2=CC(=O)CC[C@]2(C)[C@H]2CC[C@@]3(C)[C@@H](CC[C@@]34CCC(=O)O4)[C@H]12` [Spironolactone], the “HIA(Human Intestinal Absorption)” value is 0.73. `Cc1cn([C@H]2C=C[C@@H](CO)O2)c(=O)[nH]c1=O` [Stavudine]: the “HIA(Human Intestinal Absorption)” value was 1. `[H]/N=C(/N)N[C@H]1[C@H](O)[C@@H](O)[C@H](O[C@@H]2O[C@@H](C)[C@](O)(C=O)[C@H]2O[C@@H]2O[C@@H](CO)[C@H](O)[C@@H](O)[C@@H]2NC)[C@@H](N/C(N)=N\[H])[C@@H]1O` [Streptomycin]: the “HIA(Human Intestinal Absorption)” value is listed as 0.01.

`Cc1nnc(NS(=O)(=O)c2ccc(N)cc2)s1` [Sulfamethizole]: the “HIA(Human Intestinal Absorption)” value is recorded as 0.85.

As for `O=C(O)c1cc(/N=N/c2ccc(S(=O)(=O)Nc3ccccn3)cc2)ccc1O` [Sulfasalazine], the “HIA(Human Intestinal Absorption)” value is 0.62. For the compound `O=C1C(CC[S+]([O-])c2ccccc2)C(=O)N(c2ccccc2)N1c1ccccc1` (stereo not shown) [Sulfinpyrazone], the “HIA(Human Intestinal Absorption)” value is given as 1. Regarding `Cc1cc(NS(=O)(=O)c2ccc(N)cc2)nc(C)n1` [Sulfisomidine], the “HIA(Human Intestinal Absorption)” value is recorded as 0.9. As to `Cc1noc(NS(=O)(=O)c2ccc(N)cc2)c1C` [Sulfisoxazole], the “HIA(Human Intestinal Absorption)” value is recorded as 0.95.

Consider `CC1=C(CC(=O)O)c2cc(F)ccc2/C1=C\c1ccc([S+](C)[O-])cc1` (stereo not shown) [Sulindac], for which the “HIA(Human Intestinal Absorption)” value is given as 0.9.

Consider `O=C(O)c1cc(/N=N/c2ccc(S(=O)(=O)Nc3ccccn3)cc2)ccc1O` [Sulphasalazine], for which the “HIA(Human Intestinal Absorption)” value is 0.59. In the case of `CNS(=O)(=O)Cc1ccc2[nH]cc(CCN(C)C)c2c1` [Sumatriptan], the “HIA(Human Intestinal Absorption)” value is 0.57. As for `Nc1c2c(nc3ccccc13)CCCC2` [Tacrine], the “HIA(Human Intestinal Absorption)” value was 0.95.

In the case of `CCOc1ccccc1OCCN[C@H](C)Cc1ccc(OC)c(S(N)(=O)=O)c1` [Tamsulosin], the “HIA(Human Intestinal Absorption)” value was 1. As for `CC[C@H]1OC(=O)[C@H](C)C(=O)[C@H](C)[C@@H](O[C@@H]2O[C@H](C)C[C@H](N(C)C)[C@H]2O)[C@](C)(OC)C[C@@H](C)C(=O)[C@H](C)[C@H]2N(CCCCn3cnc(-c4cccnc4)c3)C(=O)O[C@]12C` [Telithromycin], the “HIA(Human Intestinal Absorption)” value is on record as 0.9.

With `CCCc1nc2c(C)cc(-c3nc4ccccc4n3C)cc2n1Cc1ccc(-c2ccccc2C(=O)O)cc1` [Telmisartan], the “HIA(Human Intestinal Absorption)” value was 0.9. As to `CN1C(C(=O)Nc2ccccn2)=C(O)c2sccc2S1(=O)=O` [Tenoxicam], the “HIA(Human Intestinal Absorption)” value is recorded as 1.

Take `CN(C/C=C/C#CC(C)(C)C)Cc1cccc2ccccc12` [Terbinafine]: the “HIA(Human Intestinal Absorption)” value is reported as 0.8. Consider `COc1cc2c(cc1OC)C1CC(=O)C(CC(C)C)CN1CC2` (stereo not shown) [Tetrabenazine], for which the “HIA(Human Intestinal Absorption)” value is 1. Consider `c1ccc2[nH]c(-c3cscn3)nc2c1` [Thiabendazole], for which the “HIA(Human Intestinal Absorption)” value was 0.9. For `Cc1ccsc1C(=CCCN1CCC[C@@H](C(=O)O)C1)c1sccc1C` [Tiagabine], the “HIA(Human Intestinal Absorption)” value is given as 0.9. For the compound `C#C[C@]1(O)CC[C@H]2[C@@H]3[C@H](C)CC4=C(CCC(=O)C4)[C@H]3CC[C@@]21C` [Tibolone], the “HIA(Human Intestinal Absorption)” value is given as 0.9. Consider `Clc1ccccc1CN1CCc2sccc2C1` [Ticlopidine], for which the “HIA(Human Intestinal Absorption)” value is given as 0.8.

As for `O=P(O)(O)C(Sc1ccc(Cl)cc1)P(=O)(O)O` [Tiludronic_acid], the “HIA(Human Intestinal Absorption)” value is given as 0.06.

Take `NC[C@H]1O[C@H](O[C@H]2[C@H](O)[C@@H](O[C@H]3O[C@H](CO)[C@@H](O)[C@H](N)[C@H]3O)[C@H](N)C[C@@H]2N)[C@H](N)C[C@@H]1O` [Tobramycin]: the “HIA(Human Intestinal Absorption)” value is listed as 0.01. As to `Cc1ccc(C(=O)c2ccc(CC(=O)O)n2C)cc1` [Tolmetin], the “HIA(Human Intestinal Absorption)” value is 0.99. Take `Cc1ccc(O)c([C@H](CCN(C(C)C)C(C)C)c2ccccc2)c1` [Tolterodine]: the “HIA(Human Intestinal Absorption)” value is on record as 0.77. On to `CC1(C)O[C@@H]2[C@@H](CO[C@@]3(COS(N)(=O)=O)OC(C)(C)O[C@@H]23)O1` [Topiramate], for which the “HIA(Human Intestinal Absorption)” value is listed as 0.86. Take `Cc1cccc(Nc2ccncc2S(=O)(=O)NC(=O)NC(C)C)c1` [Torasemide]: the “HIA(Human Intestinal Absorption)” value is recorded as 0.96.

Take `CN(C)CCOc1ccc(/C(=C(/CCCl)c2ccccc2)c2ccccc2)cc1` [Toremifene]: the “HIA(Human Intestinal Absorption)” value is 1. As for `NC[C@H]1CC[C@H](C(=O)O)CC1` [Tranexamic_acid], the “HIA(Human Intestinal Absorption)” value was 0.55.

With `C[C@]12C=CC(=O)C=C1CC[C@H]1[C@@H]3C[C@@H](O)[C@](O)(C(=O)CO)[C@@]3(C)C[C@H](O)[C@@]12F` [Triamcinolone], the “HIA(Human Intestinal Absorption)” value is given as 1. On to `COc1cc(Cc2cnc(N)nc2N)cc(OC)c1OC` [Trimethoprim], for which the “HIA(Human Intestinal Absorption)” value is given as 0.97.

As for `COc1ccccc1N1CCN(CCCNc2cc(=O)n(C)c(=O)n2C)CC1` [Urapidil], the “HIA(Human Intestinal Absorption)” value was 0.78. As for `CCCC(CCC)C(=O)O` [Valproic_acid], the “HIA(Human Intestinal Absorption)” value was 0.98. On to `C=CC(N)CCC(=O)O` (stereo not shown) [Vigabatrin], for which the “HIA(Human Intestinal Absorption)” value is 0.58. On to `CC1=C(/C=C/C(C)=C/C=C/C(C)=C/CO)C(C)(C)CCC1` [Vitamin_A], for which the “HIA(Human Intestinal Absorption)” value is 0.8. As for `Nc1ccn([C@H]2CC[C@@H](CO)O2)c(=O)n1` [Zalcitabine], the “HIA(Human Intestinal Absorption)” value is listed as 0.85. Take `CC(=O)N[C@H]1[C@H]([C@H](O)[C@H](O)CO)OC(C(=O)O)=C[C@@H]1N=C(N)N` [Zanamivir]: the “HIA(Human Intestinal Absorption)” value was 0.02. Take `Cc1cn([C@H]2C[C@H](N=[N+]=[N-])[C@@H](CO)O2)c(=O)[nH]c1=O` [Zidovudine]: the “HIA(Human Intestinal Absorption)” value is recorded as 1. With `O=C1Cc2cc(CCN3CCN(c4nsc5ccccc45)CC3)c(Cl)cc2N1` [Ziprasidone], the “HIA(Human Intestinal Absorption)” value is 0.6. With `Cc1cc(CC(=O)O)n(C)c1C(=O)c1ccc(Cl)cc1` [Zomepirac], the “HIA(Human Intestinal Absorption)” value is listed as 1. `NS(=O)(=O)Cc1noc2ccccc12` [Zonisamide]: the “HIA(Human Intestinal Absorption)” value was 1.

For a further series the following is noted: in vivo.
In the case of `CC(C)NC[C@@H](O)COc1ccc(COCCOC(C)C)cc1` [Bisoprolol(R)], the “Class(High: HIA value ≥0.7; Low: HIA value < 0.7)” value is reported as “High (key: High: HIA value ≥0.7; Low: HIA value < 0.7)”.

With `CC(C)NC[C@H](O)COc1ccc(COCCOC(C)C)cc1` [Bisoprolol(S)], the “Class(High: HIA value ≥0.7; Low: HIA value < 0.7)” value is listed as “High (key: High: HIA value ≥0.7; Low: HIA value < 0.7)”. `ClC(Cl)Cl` [Chloroform]: the “Class(High: HIA value ≥0.7; Low: HIA value < 0.7)” value is “High (key: High: HIA value ≥0.7; Low: HIA value < 0.7)”.

For `CN1C(=O)CN=C(c2ccccc2)c2cc(Cl)ccc21` [Diazepam], the “Class(High: HIA value ≥0.7; Low: HIA value < 0.7)” value was “High (key: High: HIA value ≥0.7; Low: HIA value < 0.7)”. As for `O=C(O)Cc1ccccc1Nc1c(Cl)cccc1Cl` [Diclofenac], the “Class(High: HIA value ≥0.7; Low: HIA value < 0.7)” value is “High (key: High: HIA value ≥0.7; Low: HIA value < 0.7)”. On the same count and under the same terms, to `CCOc1ccc2c3c1O[C@H]1[C@@H](O)C=C[C@H]4[C@@H](C2)N(C)CC[C@@]341` [Ethylmorphine] belongs “High (key: High: HIA value ≥0.7; Low: HIA value < 0.7)”; to `Cc1cnc(C(=O)NCCc2ccc(S(=O)(=O)NC(=O)NC3CCCCC3)cc2)cn1` [Glipizide], “High (key: High: HIA value ≥0.7; Low: HIA value < 0.7)”. Same read-out and setting: with `NS(=O)(=O)c1cc2c(cc1Cl)NCNS2(=O)=O` [Hydrochlorothiazide] the entry was “Low (key: High: HIA value ≥0.7; Low: HIA value < 0.7)”.
